Numbers after ± are expanded uncertainties.
Assay: molar heat capacity at constant pressure
Conditions: 101.33 kPa, Crystal

O=C([O-])[O-].[Li+].[Li+] [lithium carbonate]
Conditions	molar heat capacity at constant pressure [J/K/mol]
303.15 K	99.89 ± 0.63
323.15 K	100.98 ± 0.85
343.15 K	107.69 ± 1
363.15 K	111.21 ± 1.1
383.15 K	115.61 ± 1.3
403.15 K	116.88 ± 2.4
443.15 K	120.05 ± 3.7
483.15 K	129.08 ± 1.9
533.15 K	132.77 ± 2.9
563.15 K	137.29 ± 3.1

Reference: the NIST ThermoML archive (doi:10.1016/j.tca.2006.10.005)
